Test results: patent US12583826B2, “[(1,5-diphenyl-1H-1,2,4-triazol-3-yl)oxy]acetic acid derivatives and salts thereof, crop protection compositions comprising them, methods for producing them and use thereof as safeners” (Bayer Aktiengesellschaft, priority 2019, dated 2026)

Assays:
[1] = tested on: summer barley (HORVS; cv. Montoya); experiment: Absolute action: reduction of damage by mesosulfuron-methyl on summer barley, greenhouse post-emergence; assay type: in vivo; conditions: for Absolute reduction in damage (difference): mesosulfuron-methyl 20 g/ha, damage without minus with safener; for Herbicide damage with compound of the formula (I) (%): then mesosulfuron-methyl 20 g/ha, visual 0-100% scale, 14-21 days after application
Experimental: (§1) 2.2 Absolute Action of Selected Compounds of the Invention Using the Example of Reduction of Damage by Mesosulfuron-Methyl on Summer Barley (HORVS) The seeds of the crop plants to be treated are aid out in sandy loam in wood fiber or plastic pots (diameter ˜4 cm), covered with soil and grown in a greenhouse under good conditions for germination and growth. The trial plants were treated at the early leaf stage (BBCE10-BBCH12). In the course of this, the inventive compounds of the general formula (I) formulated in the form of wettable powders (WP) were sprayed onto the above-ground parts of the plants as an aqueous suspension with a water application rate corresponding to 800 l/ha with addition of wetting agent (e.g. 0.2% agrotin) in the specified dose. This was followed by the application of the herbicide. For this purpose, mesosulfuron-methyl, formulated in the form of water-dispersible granules (WG), was sprayed onto the above-ground parts of the plants in the form of an aqueous dispersion with a water application rate corresponding to 800 l/ha with addition of wetting agent (e.g. 0.2% agrotin) in a dose of 20 g/ha. The dose of the herbicide was chosen here such that it causes visually apparent damage (min. 30%, max. 75%) compared to untreated crop plants at the evaluation time on a control group of crop plants without safener treatment that were included in the same trial. After application, the plants were cultivated under good growth conditions in a greenhouse. The damage was visually assessed 14-21 days after application. The damage effect was assessed visually on a scale of 0-100% by comparison with untreated control plants, and averaged over 2-3 repeats per treatment. Examples: • 0%=no noticeable effect compared to the untreated plant • 20%=the treated plant population has 20% damage compared to the untreated control population (e.g.: growth height, leaf damage, etc.) • 100%=treated plants completely damaged/killed.

[2] = tested on: summer wheat (TRZAS; cv. Triso); experiment: Absolute action: reduction of damage by mesosulfuron-methyl on summer wheat, greenhouse post-emergence; assay type: in vivo; conditions: for Absolute reduction in herbicide damage (damage without safener minus damage with safener): mesosulfuron-methyl 20 g/ha; for Herbicide damage with compound of the formula (I): then mesosulfuron-methyl 20 g/ha, visual 0-100% scale, 14-21 days after application
Experimental: as §1, with “2.1” for “2.2”, “Wheat (TRZAS)” for “Barley (HORVS)”, “laid” for “aid”, “grow” for “grown”, “(BBCH10—BBCH12).” for “(BBCE10-BBCH12).”, “(e.g.” for “(e.g.:”

SMILES: CCOC(=O)COc1nc(-c2ccc(F)cc2F)n(-c2ccc(Cl)cc2)n1 [I.41-7]
- Absolute reduction in damage (difference) ([1]; safener 1000 g a.i./ha): 40%
- Herbicide damage with compound of the formula (I) (%) ([1]; safener 1000 g a.i./ha): 20%
- Absolute reduction in herbicide damage (damage without safener minus damage with safener) ([2]; safener 250 g/ha): 23%
- Herbicide damage with compound of the formula (I) ([2]; safener 250 g/ha): 20%

SMILES: O=C(O)COc1nc(-c2ccc(F)cc2F)n(-c2ccc(Cl)cc2)n1 [I.42-7, {[1-(4-Chlorophenyl)-5-(2,4-difluorophenyl)-1H-1,2,4-triazol-3-yl]oxy}acetic acid]
- Absolute reduction in damage (difference) ([1]; safener 250 g a.i./ha): 60%
- Herbicide damage with compound of the formula (I) (%) ([1]; safener 250 g a.i./ha): 0%
- Absolute reduction in herbicide damage (damage without safener minus damage with safener) ([2]; safener 250 g/ha): 43%
- Herbicide damage with compound of the formula (I) ([2]; safener 250 g/ha): 0%

SMILES: COC(=O)COc1nc(-c2ccc(Cl)cc2Cl)n(-c2ccc(Cl)cc2Cl)n1 [I.43-32]
- Absolute reduction in damage (difference) ([1]; safener 125 g a.i./ha): 26%
- Herbicide damage with compound of the formula (I) (%) ([1]; safener 125 g a.i./ha): 37%
- Absolute reduction in damage (difference) ([1]; safener 500 g a.i./ha): 33%
- Herbicide damage with compound of the formula (I) (%) ([1]; safener 500 g a.i./ha): 30%
- Absolute reduction in herbicide damage (damage without safener minus damage with safener) ([2]; safener 125 g a.i./ha): 33%
- Herbicide damage with compound of the formula (I) ([2]; safener 125 g a.i./ha): 30%
- Absolute reduction in herbicide damage (damage without safener minus damage with safener) ([2]; safener 500 g a.i./ha): 43%
- Herbicide damage with compound of the formula (I) ([2]; safener 500 g a.i./ha): 20%

SMILES: COC(=O)COc1nc(-c2ccc(Cl)cc2Cl)n(-c2ccc(F)cc2F)n1 [I.43-38]
- Absolute reduction in damage (difference) ([1]; safener 125 g a.i./ha): 26%
- Herbicide damage with compound of the formula (I) (%) ([1]; safener 125 g a.i./ha): 37%
- Absolute reduction in herbicide damage (damage without safener minus damage with safener) ([2]; safener 125 g a.i./ha): 30%
- Herbicide damage with compound of the formula (I) ([2]; safener 125 g a.i./ha): 33%
- Absolute reduction in herbicide damage (damage without safener minus damage with safener) ([2]; safener 500 g a.i./ha): 33%
- Herbicide damage with compound of the formula (I) ([2]; safener 500 g a.i./ha): 30%

SMILES: COC(=O)COc1nc(-c2ccc(Cl)cc2Cl)n(-c2ccc(Cl)cc2F)n1 [I.43-49, Methyl {[1-(4-chloro-2-fluorophenyl)-5-(2,4-dichlorophenyl)-1H-1,2,4-triazol-3-yl]oxy}acetate]
- Absolute reduction in damage (difference) ([1]; safener 125 g a.i./ha): 30%
- Herbicide damage with compound of the formula (I) (%) ([1]; safener 125 g a.i./ha): 33%
- Absolute reduction in damage (difference) ([1]; safener 500 g a.i./ha): 33%
- Herbicide damage with compound of the formula (I) (%) ([1]; safener 500 g a.i./ha): 30%
- Absolute reduction in herbicide damage (damage without safener minus damage with safener) ([2]; safener 125 g a.i./ha): 36%
- Herbicide damage with compound of the formula (I) ([2]; safener 125 g a.i./ha): 27%
- Absolute reduction in herbicide damage (damage without safener minus damage with safener) ([2]; safener 500 g a.i./ha): 40%
- Herbicide damage with compound of the formula (I) ([2]; safener 500 g a.i./ha): 23%

SMILES: CCOC(=O)COc1nc(-c2ccc(Cl)cc2Cl)n(-c2ccc(Cl)cc2Cl)n1 [I.44-32]
- Absolute reduction in damage (difference) ([1]; safener 125 g a.i./ha): 33%
- Herbicide damage with compound of the formula (I) (%) ([1]; safener 125 g a.i./ha): 27%
- Absolute reduction in damage (difference) ([1]; safener 500 g a.i./ha): 47%
- Herbicide damage with compound of the formula (I) (%) ([1]; safener 500 g a.i./ha): 13%
- Absolute reduction in herbicide damage (damage without safener minus damage with safener) ([2]; safener 125 g a.i./ha): 53%
- Herbicide damage with compound of the formula (I) ([2]; safener 125 g a.i./ha): 10%
- Absolute reduction in herbicide damage (damage without safener minus damage with safener) ([2]; safener 500 g a.i./ha): 56%
- Herbicide damage with compound of the formula (I) ([2]; safener 500 g a.i./ha): 7%

SMILES: CCOC(=O)COc1nc(-c2ccc(Cl)cc2Cl)n(-c2ccc(F)cc2F)n1 [I.44-38]
- Absolute reduction in damage (difference) ([1]; safener 125 g a.i./ha): 43%
- Herbicide damage with compound of the formula (I) (%) ([1]; safener 125 g a.i./ha): 17%
- Absolute reduction in damage (difference) ([1]; safener 500 g a.i./ha): 50%
- Herbicide damage with compound of the formula (I) (%) ([1]; safener 500 g a.i./ha): 10%
- Absolute reduction in herbicide damage (damage without safener minus damage with safener) ([2]; safener 125 g a.i./ha): 53%
- Herbicide damage with compound of the formula (I) ([2]; safener 125 g a.i./ha): 10%
- Absolute reduction in herbicide damage (damage without safener minus damage with safener) ([2]; safener 500 g a.i./ha): 60%
- Herbicide damage with compound of the formula (I) ([2]; safener 500 g a.i./ha): 3%

SMILES: CCOC(=O)COc1nc(-c2ccc(Cl)cc2Cl)n(-c2ccc(Cl)cc2F)n1 [I.44-49]
- Absolute reduction in damage (difference) ([1]; safener 125 g a.i./ha): 30%
- Herbicide damage with compound of the formula (I) (%) ([1]; safener 125 g a.i./ha): 30%
- Absolute reduction in herbicide damage (damage without safener minus damage with safener) ([2]; safener 125 g a.i./ha): 43%
- Herbicide damage with compound of the formula (I) ([2]; safener 125 g a.i./ha): 10%
- Absolute reduction in herbicide damage (damage without safener minus damage with safener) ([2]; safener 500 g a.i./ha): 46%
- Herbicide damage with compound of the formula (I) ([2]; safener 500 g a.i./ha): 7%

SMILES: O=C(O)COc1nc(-c2ccc(Cl)cc2Cl)n(-c2ccc(F)cc2F)n1 [I.45-38]
- Absolute reduction in damage (difference) ([1]; safener 125 g a.i./ha): 30%
- Herbicide damage with compound of the formula (I) (%) ([1]; safener 125 g a.i./ha): 30%
- Absolute reduction in damage (difference) ([1]; safener 500 g a.i./ha): 40%
- Herbicide damage with compound of the formula (I) (%) ([1]; safener 500 g a.i./ha): 20%
- Absolute reduction in herbicide damage (damage without safener minus damage with safener) ([2]; safener 125 g a.i./ha): 33%
- Herbicide damage with compound of the formula (I) ([2]; safener 125 g a.i./ha): 30%
- Absolute reduction in herbicide damage (damage without safener minus damage with safener) ([2]; safener 500 g a.i./ha): 43%
- Herbicide damage with compound of the formula (I) ([2]; safener 500 g a.i./ha): 20%

SMILES: O=C(O)COc1nc(-c2ccc(Cl)cc2Cl)n(-c2ccc(Cl)cc2F)n1 [I.45-49, {[1-(4-Chloro-2-fluorophenyl)-5-(2,4-dichlorophenyl)-1H-1,2,4-triazol-3-yl]oxy}acetic acid]
- Absolute reduction in damage (difference) ([1]; safener 125 g a.i./ha): 20%
- Herbicide damage with compound of the formula (I) (%) ([1]; safener 125 g a.i./ha): 40%
- Absolute reduction in damage (difference) ([1]; safener 500 g a.i./ha): 30%
- Herbicide damage with compound of the formula (I) (%) ([1]; safener 500 g a.i./ha): 30%
- Absolute reduction in herbicide damage (damage without safener minus damage with safener) ([2]; safener 125 g a.i./ha): 20%
- Herbicide damage with compound of the formula (I) ([2]; safener 125 g a.i./ha): 43%
- Absolute reduction in herbicide damage (damage without safener minus damage with safener) ([2]; safener 500 g a.i./ha): 23%
- Herbicide damage with compound of the formula (I) ([2]; safener 500 g a.i./ha): 40%

SMILES: COC(=O)COc1nc(-c2ccc(Cl)cc2F)n(-c2ccccc2F)n1 [I.46-2]
- Absolute reduction in damage (difference) ([1]; safener 125 g a.i./ha): 23%
- Herbicide damage with compound of the formula (I) (%) ([1]; safener 125 g a.i./ha): 37%
- Absolute reduction in damage (difference) ([1]; safener 500 g a.i./ha): 33%
- Herbicide damage with compound of the formula (I) (%) ([1]; safener 500 g a.i./ha): 27%
- Absolute reduction in herbicide damage (damage without safener minus damage with safener) ([2]; safener 125 g a.i./ha): 46%
- Herbicide damage with compound of the formula (I) ([2]; safener 125 g a.i./ha): 7%

SMILES: COC(=O)COc1nc(-c2ccc(Cl)cc2F)n(-c2ccc(Cl)cc2Cl)n1 [I.46-32]
- Absolute reduction in damage (difference) ([1]; safener 125 g a.i./ha): 27%
- Herbicide damage with compound of the formula (I) (%) ([1]; safener 125 g a.i./ha): 33%
- Absolute reduction in damage (difference) ([1]; safener 500 g a.i./ha): 33%
- Herbicide damage with compound of the formula (I) (%) ([1]; safener 500 g a.i./ha): 27%
- Absolute reduction in herbicide damage (damage without safener minus damage with safener) ([2]; safener 125 g a.i./ha): 43%
- Herbicide damage with compound of the formula (I) ([2]; safener 125 g a.i./ha): 10%
- Absolute reduction in herbicide damage (damage without safener minus damage with safener) ([2]; safener 500 g a.i./ha): 46%
- Herbicide damage with compound of the formula (I) ([2]; safener 500 g a.i./ha): 7%

SMILES: COC(=O)COc1nc(-c2ccc(Cl)cc2F)n(-c2ccc(F)cc2F)n1 [I.46-38]
- Absolute reduction in damage (difference) ([1]; safener 125 g a.i./ha): 40%
- Herbicide damage with compound of the formula (I) (%) ([1]; safener 125 g a.i./ha): 23%
- Absolute reduction in damage (difference) ([1]; safener 500 g a.i./ha): 43%
- Herbicide damage with compound of the formula (I) (%) ([1]; safener 500 g a.i./ha): 20%
- Absolute reduction in herbicide damage (damage without safener minus damage with safener) ([2]; safener 125 g a.i./ha): 33%
- Herbicide damage with compound of the formula (I) ([2]; safener 125 g a.i./ha): 30%
